In publication PMC9453454, “Design, synthesis, and anticancer activity of three novel palbociclib derivatives” (Frontiers in Oncology, 2022) one finds IC50 and melting point data, which are given here for four compounds.

One data set has as its system NCI-H460 cells. The data set is described as follows: MTT in vitro cytotoxicity, NCI-H460. The format is cell-based, human. As to the method:
(§1) Human lung cancer cells (NCI-H460, NCI-H1299, and A549), human breast cancer cells (MDA-MB-231, MDA-MB-453, and MCF-7), human liver cancer cells (Huh-7 and HepG2), human colon cancer cells (coca-2, HT-29, and HCT116), human cervical cancer cells (HeLa), human normal lung cells (BEAS-2B), and human normal […] (MCF-10) were from the State Key Laboratory of Pharmaceutical Biotechnology, Nanjing University. NCI-H460 were cultured in 1640 medium containing 10% fetal bovine serum (FBS). MDA-MB-231 were cultured in L15 medium containing 10% FBS without CO2, and other cell lines were cultured in DMEM medium containing 10% FBS CO2 in the incubator.
(§2) MTT assay was used to identify 14 different cell lines (human lung cancer cells NCI-H460, NCI-H1299, and A549; human breast cancer cells MDA-MB-231, MDA-MB-453, and MCF-7; human liver cancer cells Huh-7 and HepG2; human colon cancer cells coca-2, HT-29, and HCT116; and human cervical cancer cells HeLa) and 2 kinds of normal cell lines (human normal lung epithelial cells BEAS-2B, human normal breast epithelial cells MCF10-A) for quantitative analysis ([15]). In addition, 10-HCPT and palbociclib were used as positive control.
(§3) Cells were harvested during the logarithmic growth phase and seeded into 96-well plates at a density of 2.0×10^3 cells/well. After being incubated for 24 h, the cells were treated with different concentrations of various culture programs for 48 h. Afterwards, 20 μl of MTT solution (5 mg/ml) was added to each well, and the cells were incubated in a 5% CO2 atmosphere at 37°C for another 4 h. Then, the supernatant was discarded, and the formazan crystals were dissolved in 150 μl DMSO. Subsequently, the absorbance was measured at 570 nm via a Tecan microplate reader. The concentration that caused 50% inhibition of cell viability (IC50) values was calculated by GraphPad Software. Triplicate experiments were performed in parallel for each concentration, and the results are shown as the mean ± SD. The inhibitory ratio was calculated using the following formula: inhibitory ratio (%) = [1−(mean absorbance of experiment group)/(mean absorbance of control group)] × 100.

A further data set has as its system NCI-H1299 cells. The data set is described as follows: MTT in vitro cytotoxicity, NCI-H1299. The format is cell-based, human. Here is the method: as §1, §2, §3
In the next data set the test system is A549 cells. The data set can be described thus: MTT in vitro cytotoxicity, A549. The format is cell-based, human. As to the method:
as §1, §2, §3

The subject of the next data set is BEAS-2B cells. The data set is described as follows: MTT in vitro cytotoxicity, BEAS-2B normal lung epithelial cells. The format is cell-based, human. The settings on record: 48 h. As to the method:
as §1, §2, §3

The test system of the next data set is MDA-MB-231 cells. The data set is described as follows: MTT in vitro cytotoxicity, MDA-MB-231. The format is cell-based, human. As to the method:
as §1, §2, §3

A further data set deals with MDA-MB-453 cells. The data set is described as follows: MTT in vitro cytotoxicity, MDA-MB-453. The format is cell-based, human. Here is the method:
as §1, §2, §3

The test system of another data set is MCF-7 cells. The data set is described as follows: MTT in vitro cytotoxicity, MCF-7. The format is cell-based, human. Here is the method:
as §1, §2, §3

For another data set, the system named is MCF10-A cells. The data set can be described thus: MTT in vitro cytotoxicity, MCF10-A normal breast epithelial cells. The format is cell-based, human. The settings on record: MCF-10A, 48 h. Here is the method: as §1, §2, §3
The next data set has as its system Huh-7 cells. The data set can be described thus: MTT in vitro cytotoxicity, Huh-7. The format is cell-based, human. Here is the method:
as §1, §2, §3

Another data set deals with HepG2 cells. The data set can be described thus: MTT in vitro cytotoxicity, HepG2. The format is cell-based, human. As to the method:
as §1, §2, §3

The subject of another data set is Coca-2 cells. The data set can be described thus: MTT in vitro cytotoxicity, Coca-2. The format is cell-based, human. The settings on record: 48 h. As to the method: as §1, §2, §3
The next data set concerns HT-29 cells. The data set can be described thus: MTT in vitro cytotoxicity, HT-29. The format is cell-based, human. As to the method:
as §1, §2, §3

In another data set the test system is HCT116 cells. The data set is described as follows: MTT in vitro cytotoxicity, HCT116. The format is cell-based, human. As to the method:
as §1, §2, §3

For a further data set, the system named is Hela cells. The data set is described as follows: MTT in vitro cytotoxicity, Hela. The format is cell-based, human. The following applies: 48 h. As to the method: as §1, §2, §3
Setting [1] is: NCI-H460 human lung cancer cells, MTT, 48 h, read-out: IC50.
Setting [2] is: NCI-H1299 human lung cancer cells, MTT, 48 h, read-out: IC50.
Where [3] appears, read: A549 human lung cancer cells, MTT, 48 h, read-out: IC50.
Where [4] appears, read: BEAS-2B human normal lung epithelial cells, MTT, read-out: IC50.
[5] abbreviates: MDA-MB-231 human breast cancer cells, MTT, 48 h, read-out: IC50.
The mark [6] stands for this setting: MDA-MB-453 human breast cancer cells, MTT, 48 h, read-out: IC50.
Where [7] appears, read: MCF7, MCF-7 human breast cancer cells, MTT, 48 h, read-out: IC50.
Where [8] appears, read: MCF10-A human normal breast epithelial cells, MTT, read-out: IC50.
Setting [9] is: Huh-7 human liver cancer cells, MTT, 48 h, read-out: IC50.
Setting [10] is: HepG2 human liver cancer cells, MTT, 48 h, read-out: IC50.
[11] abbreviates: Coca-2 human colon cancer cells, MTT, read-out: IC50.
The mark [12] stands for this setting: HT-29 human colon cancer cells, MTT, 48 h, read-out: IC50.
Setting [13] is: HCT-116, HCT116 human colon cancer cells, MTT, 48 h, read-out: IC50.
[14] abbreviates: Hela human cervical cancer cells, MTT, read-out: IC50.

Read-outs that look alike come from different tables or passages of the source.

In the case of `CC[C@@]1(O)C(=O)OCc2c1cc1n(c2=O)Cc2cc3cc(O)ccc3nc2-1` [10-HCPT, 10-hydroxycamptothecin, reference compound], the IC50 was determined as 1.96 ± 0.01 µM with NCI-H460 cells (Homo sapiens, NCI-H460, 48 h); 3.39 ± 0.16 µM with NCI-H1299 cells (Homo sapiens, NCI-H1299, 48 h); 4.14 ± 0.03 µM in the data set on A549 cells (Homo sapiens, A549, 48 h); 7.05 ± 0.52 µM in the data set with BEAS-2B cells (Homo sapiens, BEAS-2B); 15.5 ± 1.07 µM in the data set with MDA-MB-231 cells (Homo sapiens, MDA-MB-231, 48 h); 5.73 ± 0.62 µM in the data set on MDA-MB-453 cells (Homo sapiens, MDA-MB-453, 48 h). For the same compound, the IC50 in the data set on MCF-7 cells (Homo sapiens, MCF7, 48 h) turned out to be 13.2 ± 0.31 µM; with MCF10-A cells (Homo sapiens), 20.3 ± 0.59 µM; in the data set on Huh-7 cells (Homo sapiens, Huh-7, 48 h), 7.69 ± 0.84 µM; in the data set with HepG2 cells (Homo sapiens, HepG2, 48 h), 2.45 ± 0.27 µM; with Coca-2 cells (Homo sapiens), 13.4 ± 0.34 µM; with HT-29 cells (Homo sapiens, HT-29, 48 h), 4.61 ± 0.19 µM. Besides, the IC50 in the data set on HCT116 cells (Homo sapiens, HCT-116, 48 h) turned out to be 10.4 ± 0.7 µM; in the data set with Hela cells (Homo sapiens, HeLa), 6.54 ± 0.07 µM.

In the case of `CC[C@]1(O)C(=O)OCc2c1cc1n(c2=O)Cc2cc3cc(OC(=O)CCC(=O)N4CCN(c5ccc(Nc6ncc7c(C)c(C(C)=O)c(=O)n(C8CCCC8)c7n6)nc5)CC4)ccc3nc2-1` [HP-2, (R)-4-ethyl-4-hydroxy-3,14-dioxo-3,4,12,14-tetrahydro-1H-pyrano[3’,4’:6,7] indolizino[1,2-b]quinolin-9-yl4-(4-(6-((6-acetyl-8-cyclopentyl-5-methyl-7-oxo-7,8-dihydropyrido[2,3-d]pyrimidin-2-yl)amino)pyridin-3-yl)piperazin-1-yl)-4-oxobutanoate], the melting point was 48.9 to 50.5 °C. For the same compound, the IC50 in the data set with NCI-H460 cells (setting [1]) worked out at 1.32 ± 0.01 µM. Moreover, the IC50 in the data set with NCI-H1299 cells (setting [2]) came to 3.35 ± 0.01 µM. In addition, the IC50 in the data set with A549 cells (setting [3]) turned out to be 5.24 ± 0.37 µM. For the same compound, in the data set with BEAS-2B cells (setting [4]), the half-inhibitory concentration (IC50) was 34.8 ± 0.44 µM. In the data set with MDA-MB-231 cells (setting [5]), the IC50 is 16.5 ± 0.82 µM. In addition, the IC50 with MDA-MB-453 cells (setting [6]) turned out to be 6.38 ± 0.97 µM. In addition, in the data set on MCF-7 cells (setting [7]), the IC50 worked out at 16.7 ± 0.59 µM. Besides, the IC50 in the data set on MCF10-A cells (setting [8]) amounted to 31.38 ± 0.23 µM. In addition, in the data set on Huh-7 cells (setting [9]), the IC50 amounted to 16.5 ± 1.76 µM. Also, the IC50 in the data set with HepG2 cells (setting [10]) was 8.11 ± 1.34 µM. Besides, in the data set with Coca-2 cells (setting [11]), the IC50 is 18.8 ± 0.46 µM. Also, the IC50 with HT-29 cells (setting [12]) was 11.6 ± 0.57 µM. Further, the 50% inhibitory concentration (IC50) in the data set on HCT116 cells (setting [13]) amounted to 19.6 ± 1.21 µM. For the same compound, in the data set on Hela cells (setting [14]), the IC50 was found to be 7.82 ± 2.34 µM.

Turning to `CC[C@]1(O)C(=O)OCc2c1cc1n(c2=O)Cc2cc3cc(OC(=O)/C=C/C(=O)N4CCN(c5ccc(Nc6ncc7c(C)c(C(C)=O)c(=O)n(C8CCCC8)c7n6)nc5)CC4)ccc3nc2-1` [HP-3, (R)-4-ethyl-4-hydroxy-3,14-dioxo-3,4,12,14-tetrahydro-1H-pyrano[3’,4’:6,7] indolizino[1,2-b]quinolin-9-yl(E)-4-(4-(6-((6-acetyl-8-cyclopentyl-5-methyl-7-oxo-7,8-dihydropyrido[2,3-d]pyrimidin-2-yl)amino)pyridin-3-yl)piperazin-1-yl)-4-oxobut-2-enoate], the melting point lay within 45.7 to 47.3 °C. The IC50 in the data set with NCI-H460 cells (setting [1]) came to 2.08 ± 0.25 µM. Further, in the data set with NCI-H1299 cells (setting [2]), the half-maximal inhibitory concentration (IC50) is 4.35 ± 0.13 µM. For the same compound, the IC50 in the data set on A549 cells (setting [3]) amounted to 5.52 ± 0.11 µM. Further, the concentration for half-maximal inhibition (IC50) in the data set with BEAS-2B cells (setting [4]) came to 39.98 ± 0.16 µM. Moreover, the half-inhibitory concentration (IC50) with MDA-MB-231 cells (setting [5]) came out at 27.3 ± 1.43 µM. Also, in the data set with MDA-MB-453 cells (setting [6]), the IC50 was determined as 8.31 ± 0.52 µM. Moreover, the IC50 in the data set with MCF-7 cells (setting [7]) was 21.4 ± 1.27 µM. The IC50 with MCF10-A cells (setting [8]) is 37.3 ± 1.66 µM. Besides, the half-maximal inhibitory concentration (IC50) in the data set with Huh-7 cells (setting [9]) came out at 33.7 ± 1.03 µM. Also, the IC50 with HepG2 cells (setting [10]) was found to be 6.84 ± 0.91 µM. In addition, the IC50 in the data set with Coca-2 cells (setting [11]) stood at 17.1 ± 0.28 µM. Besides, in the data set on HT-29 cells (setting [12]), the IC50 amounted to 15.4 ± 0.42 µM. In addition, in the data set with HCT116 cells (setting [13]), the IC50 is 23.2 ± 0.49 µM. In addition, in the data set on Hela cells (setting [14]), the IC50 turned out to be 14.9 ± 0.73 µM.

Turning to `CC(=O)c1c(C)c2cnc(Nc3ccc(N4CCNCC4)cn3)nc2n(C2CCCC2)c1=O` [Palbociclib], the IC50 in the data set with NCI-H460 cells (setting [1]) amounted to 2.95 ± 0.11 µM; in the data set on NCI-H1299 cells (setting [2]), 5.09 ± 0.24 µM; with A549 cells (setting [3]), 6.16 ± 0.19 µM; with BEAS-2B cells (setting [4]), 38.8 ± 0.59 µM; in the data set with MDA-MB-231 cells (setting [5]) it was 11.7 ± 1.75 µM; with MDA-MB-453 cells (setting [6]), 5.15 ± 1.04 µM. Also, the IC50 in the data set with MCF-7 cells (setting [7]) is 8.73 ± 0.33 µM; in the data set with MCF10-A cells (setting [8]), 39.7 ± 0.57 µM; in the data set on Huh-7 cells (setting [9]), 32.1 ± 1.93 µM; in the data set with HepG2 cells (setting [10]) it was 7.55 ± 1.49 µM; with Coca-2 cells (setting [11]), 35.9 ± 0.41 µM; in the data set with HT-29 cells (setting [12]) it was 16.8 ± 0.39 µM. Further, the IC50 in the data set with HCT116 cells (setting [13]) was 31.6 ± 1.21 µM; in the data set on Hela cells (setting [14]), 21.35 ± 0.13 µM.
